Tested on: Akt phosphorylation in Molt-4 (PTEN-/SHIP1+) cells
Assay: Akt phosphorylation in lymphocytes (Western blot, IGF-1 stimulated)
Type: cell-based
Design: key: +: inhibits Akt phosphorylation at 30 μM; −: no effect on Akt phosphorylation at 30 μM
Settings: 30 μM; Molt-4 (SHIP1+) cells, IGF-1 100 ng/mL
Procedure: Molt-4 (PTEN-/SHIP1+) cells are starved in serum free RPMI for overnight. In a 15 mL conical tube, 2-3 million serum starved cells (1 million cells per mL) are treated with various concentrations of test compound ([…]) for 30 min at 37° C. followed by stimulation with 100 ng/mL of IGF-1 for 1 hour at 37° C. After stimulation, cells are washed once with ice-cold DPBS and lysed with Lysis Buffer (20 mM Tris-HCl, pH 7.5, 140 mM NaCl, 1% NP-40, Complete Mini Protease Inhibitor Cocktail, 10 mM NaF, 1 mM Na3VO4, 1 mM β-glycerolphosphate) on ice for 30 min with vortexing every 10 min. Samples are then centrifuged at 13,000 rpm for 20 min, and supernatants are collected as total cell lysate samples. Protein concentration is determined using bicinchonic acid assay, and about 15 μg of total protein from each sample is loaded and separated on a 4-12% Tris-Glycine gel. After SDS-PAGE, proteins are transferred from the gel to a nitrocellulose membrane. The membrane is blocked in 5% BSA in PBS containing 0.1% Tween-20 (PBS-T) for 1 hour at room temperature before probing with primary antibodies for overnight at 4° C. The following antibodies are used: mouse anti-SHIP1 (1:500 dilution; Santa Cruz, Calif., USA), rabbit anti-phospho-Akt (Ser473) (1:1000 dilution; Cell Signaling Technologies, MA, USA), rabbit anti-Akt (1:1000; Cell Signaling Technologies, MA, USA), and rabbit anti-actin (1:2000; Cell Signaling Technologies, MA, USA). The membrane is then incubated with goat anti-rabbit or anti-mouse secondary antibodies (1:3000) for 1 hour at room temperature. Target proteins on the membrane are detected with ECL solution and exposed on a film.

Compound	Molt-4 (SHIP+): inhibition of Akt phosphorylation
C=C1CC[C@H]2[C@H](O)[C@@H]([C@@]3(C)CC[C@H](O)C[C@@H]3CCN3CCN(C)CC3)CC[C@]12C [Cpd. No. 48, (3aR,4R,5R,7aS)-5-((1S,2S,4S)-4-hydroxy-1-methyl-2-(2-(4-methylpiperazin-1-yl)ethyl)cyclohexyl)-7a-methyl-1-methyleneoctahydro-1H-inden-4-ol]	+
C=C1CC[C@H]2[C@H](O)[C@@H]([C@@]3(C)CC[C@H](O)C[C@@H]3CCn3ccnc3)CC[C@]12C [Cpd. No. 50, (3aR,4R,5R,7aS)-5-((1S,2S,4S)-2-(2-(1H-imidazol-1-yl)ethyl)-4-hydroxy-1-methylcyclohexyl)-7a-methyl-1-methyleneoctahydro-1H-inden-4-ol]	+
C=C1CC[C@H]2[C@H](O)[C@@H]([C@@]3(C)CC[C@H](O)C[C@@H]3CCOc3ccccn3)CC[C@]12C [Cpd. No. 57, (3aR,4R,5R,7aS)-5-((1S,2S,4S)-4-hydroxy-1-methyl-2-(2-(pyridin-2-yloxy)ethyl)cyclohexyl)-7a-methyl-1-methyleneoctahydro-1H-inden-4-ol]	+
C=C1CC[C@H]2[C@H](CNC(=O)c3ccco3)[C@@H]([C@@]3(C)CC[C@H](O)C[C@@H]3CO)CC[C@]12C [Cpd. No. 81, N-(((3aS,4R,5S,7aS)-5-((1R,2S,4S)-4-hydroxy-2-(hydroxymethyl)-1-methylcyclohexyl)-7a-methyl-1-methyleneoctahydro-1H-inden-4-yl)methyl)furan-2-carboxamide]	+
C=C1CC[C@H]2[C@H](CNC(=O)C3CC3)[C@@H]([C@@]3(C)CC[C@H](O)C[C@@H]3CO)CC[C@]12C [Cpd. No. 82, N-(((3aS,4R,5S,7aS)-5-((1R,2S,4S)-4-hydroxy-2-(hydroxymethyl)-1-methylcyclohexyl)-7a-methyl-1-methyleneoctahydro-1H-inden-4-yl)methyl)cyclopropanecarboxamide]	+
C=C1CC[C@H]2[C@H](CNC(=O)C3CCCCC3)[C@@H]([C@@]3(C)CC[C@H](O)C[C@@H]3CO)CC[C@]12C [Cpd. No. 83, N-(((3aS,4R,5S,7aS)-5-((1R,2S,4S)-4-hydroxy-2-(hydroxymethyl)-1-methylcyclohexyl)-7a-methyl-1-methyleneoctahydro-1H-inden-4-yl)methyl)cyclohexanecarboxamide]	+
C=C1CC[C@H]2[C@H](CNC(=O)NCC)[C@@H]([C@@]3(C)CC[C@H](O)C[C@@H]3CO)CC[C@]12C [Cpd. No. 84, 1-ethyl-3-(((3aS,4R,5S,7aS)-5-((1R,2S,4S)-4-hydroxy-2-(hydroxymethyl)-1-methylcyclohexyl)-7a-methyl-1-methyleneoctahydro-1H-inden-4-yl)methyl)urea]	+
C=C1CC[C@H]2[C@H](CNC(=S)NC)[C@@H]([C@@]3(C)CC[C@H](O)C[C@@H]3CO)CC[C@]12C [Cpd. No. 85, 1-(((3aS,4R,5S,7aS)-5-((1R,2S,4S)-4-hydroxy-2-(hydroxymethyl)-1-methylcyclohexyl)-7a-methyl-1-methyleneoctahydro-1H-inden-4-yl)methyl)-3-methylthiourea]	+
C=C1CC[C@H]2[C@H](CNC(=O)C(F)(F)F)[C@@H]([C@@]3(C)CC[C@H](O)C[C@@H]3CO)CC[C@]12C [Cpd. No. 86, 2,2,2-trifluoro-N-(((3aS,4R,5S,7aS)-5-((1R,2S,4S)-4-hydroxy-2-(hydroxymethyl)-1-methylcyclohexyl)-7a-methyl-1-methyleneoctahydro-1H-inden-4-yl)methyl)acetamide]	+
C=C1CC[C@H]2[C@H](CC#N)[C@@H]([C@@]3(C)CC[C@H](O)C[C@@H]3CO)CC[C@]12C [Cpd. No. 87, 2-((3aS,4R,5S,7aS)-5-((1R,2S,4S)-4-hydroxy-2-(hydroxymethyl)-1-methylcyclohexyl)-7a-methyl-1-methyleneoctahydro-1H-inden-4-yl)acetonitrile]	+
C=C1CC[C@H]2[C@H](CNOC)[C@@H]([C@@]3(C)CC[C@H](O)C[C@@H]3CO)CC[C@]12C [Cpd. No. 88, (1S,3S,4R)-3-(hydroxymethyl)-4-((3aS,4R,5S,7aS)-4-((methoxyamino)methyl)-7a-methyl-1-methyleneoctahydro-1H-inden-5-yl)-4-methylcyclohexanol]	+
C=C1CC[C@H]2[C@H](CNC#N)[C@@H]([C@@]3(C)CC[C@H](O)C[C@@H]3CO)CC[C@]12C [Cpd. No. 89, N-(((3aS,4R,5S,7aS)-5-((1R,2S,4S)-4-hydroxy-2-(hydroxymethyl)-1-methylcyclohexyl)-7a-methyl-1-methyleneoctahydro-1H-inden-4-yl)methyl)cyanamide]	+
C=C1CC[C@H]2[C@H](CC(N)=O)[C@@H]([C@@]3(C)CC[C@H](O)C[C@@H]3CO)CC[C@]12C [Cpd. No. 90, 2-((3aS,4R,5S,7aS)-5-((1R,2S,4S)-4-hydroxy-2-(hydroxymethyl)-1-methylcyclohexyl)-7a-methyl-1-methyleneoctahydro-1H-inden-4-yl)acetamide]	+
C=C1CC[C@H]2[C@H](O)[C@@H]([C@@]3(C)CC[C@H](O)C[C@@H]3CCC#N)CC[C@]12C [Cpd. No. 94, 3-((1S,2S,5S)-5-hydroxy-2-((3aR,4R,5R,7aS)-4-hydroxy-7a-methyl-1-methyleneoctahydro-1H-inden-5-yl)-2-methylcyclohexyl)propanenitrile]	+
C=C1CC[C@H]2[C@H](O)[C@@H]([C@@]3(C)CC[C@H](O)C[C@@H]3CCC(N)=O)CC[C@]12C [Cpd. No. 95, 3-((1S,2S,5S)-5-hydroxy-2-((3aR,4R,5R,7aS)-4-hydroxy-7a-methyl-1-methyleneoctahydro-1H-inden-5-yl)-2-methylcyclohexyl)propanamide]	+
C=C1CC[C@H]2[C@H](O)[C@@H]([C@@]3(C)CC[C@H](O)C[C@H]3CCC(=O)O)CC[C@]12C [Cpd. No. 97, 3-((1R,2S,5S)-5-hydroxy-2-((3aR,4R,5R,7aS)-4-hydroxy-7a-methyl-1-methyleneoctahydro-1H-inden-5-yl)-2-methylcyclohexyl)propanoic acid]	+
C=C1CC[C@H]2[C@H](C(=O)O)[C@@H]([C@@]3(C)CC[C@H](O)C[C@H]3CO)CC[C@]12C [Cpd. No. 98, (3aS,4R,5S,7aS)-5-((1R,2R,4S)-4-hydroxy-2-(hydroxymethyl)-1-methylcyclohexyl)-7a-methyl-1-methyleneoctahydro-1H-indene-4-carboxylic acid]	+
